Measurements as given in patent US20250092044A1, “Kinase Inhibitors” (Incyte Corporation, priority 2023, published 2025).

Columns and labels:
FLT3 [1] = assay: FLT3 Enzymatic Assay; format: biochemical
Experimental: (§1) The kinase assays were carried out at room temperature in assay buffer (HEPES 50 mM, pH 7.0, NaN3 0.02%, BSA 0.01%, Orthovanadate 0.1 mM, DTT 1 mM, MgCl2 10 mM) in a final volume of 10 μL. Testing compounds were prepared by serial dilution in DMSO and transferred to the plate wells by ECHO liquid handler (Labcyte) with 0.5% DMSO in the final assay. […]. Reactions were initiated by the addition of 5 μL ATP in assay buffer. The final 10 μL kinase reaction consists of 0.011 nM FLT3, 1 mM ATP, 500 nM TK Substrate-biotin and SEB reagent 62.5 nM in assay buffer. […] The plates were then sealed and centrifuged at 1800 rpm for 2 minutes. After 60 minutes incubation at room temperature, the product activity was determined by measuring the fluorescence at 620 nm and 665 nm on Pherastar microplate reader (BMG Labtech). A ratio is calculated (665/620 nm) for each well. Wells with DMSO only were served as the positive controls and wells containing no ATP were used as negative controls. IC50 determination was performed by fitting the curve of percent control activity versus the log of the compound concentration using the GraphPad Prism 7.0 software.

FLT3 [2] = molecular target: FLT3 (Homo sapiens (Human), UniProt P36888); assay: FLT3 Enzymatic Assay; format: biochemical; conditions: 1 mM ATP
Chain of FLT3 (Homo sapiens (Human), UniProt P36888) (P36888 27-993, species assumed): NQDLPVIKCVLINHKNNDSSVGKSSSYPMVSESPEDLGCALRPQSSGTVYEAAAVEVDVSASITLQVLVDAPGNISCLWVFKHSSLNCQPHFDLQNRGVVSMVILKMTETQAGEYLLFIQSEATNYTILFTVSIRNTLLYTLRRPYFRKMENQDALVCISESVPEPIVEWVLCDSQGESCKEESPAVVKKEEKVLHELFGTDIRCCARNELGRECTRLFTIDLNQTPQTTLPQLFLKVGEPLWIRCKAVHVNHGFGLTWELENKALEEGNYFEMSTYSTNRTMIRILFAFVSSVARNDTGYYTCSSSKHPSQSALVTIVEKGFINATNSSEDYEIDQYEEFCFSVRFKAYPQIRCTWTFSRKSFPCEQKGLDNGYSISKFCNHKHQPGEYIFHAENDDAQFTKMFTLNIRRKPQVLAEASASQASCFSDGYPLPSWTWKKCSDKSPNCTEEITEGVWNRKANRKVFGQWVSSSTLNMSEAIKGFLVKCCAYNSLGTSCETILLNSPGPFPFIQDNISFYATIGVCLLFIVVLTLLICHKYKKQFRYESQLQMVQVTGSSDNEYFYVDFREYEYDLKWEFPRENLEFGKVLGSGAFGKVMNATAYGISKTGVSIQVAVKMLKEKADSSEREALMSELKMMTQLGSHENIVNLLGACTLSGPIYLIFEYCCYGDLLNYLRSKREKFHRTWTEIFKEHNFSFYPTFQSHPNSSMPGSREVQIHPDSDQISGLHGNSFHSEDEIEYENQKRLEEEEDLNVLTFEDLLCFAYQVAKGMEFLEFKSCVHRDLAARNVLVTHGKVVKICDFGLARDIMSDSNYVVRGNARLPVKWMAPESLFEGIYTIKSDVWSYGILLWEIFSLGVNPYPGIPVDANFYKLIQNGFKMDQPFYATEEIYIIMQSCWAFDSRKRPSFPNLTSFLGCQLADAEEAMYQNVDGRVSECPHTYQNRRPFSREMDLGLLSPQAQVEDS
Experimental: as §1

[3] = system: STAT5 (Tyr694) phosphorylation in SET-2 cells; assay: STAT5 (Tyr694) Phosphorylation Cell Based Assay; conditions: Homo sapiens, 2 hours, read-out: SET2 IC50
Experimental: SET-2 cells was purchased from DSMZ (Germany). RPMI1640 medium, Fetal Bovine Serum and 384-white sold flat-bottom small volume plate were purchased from Thermo Fisher Scientific (Waltham, MA). Phospho-STAT5 (Tyr694) HTRF kit was purchased from Perkin Elmer (Waltham, MA).
SET-2 cells were cultured in RPMI media with 20% FBS at 37° C. in humidified incubator supplied with 5% CO2. On the day of assay, the cells were centrifuged to remove the culture media and resuspended with prewarmed RPMI with 10% FBS. Testing compounds were prepared by serial dilution in DMSO and 50 nL/well test compounds were transferred to the 384 white low volume cell culture plate (Greiner Bio-one) by ECHO liquid handler (Labcyte). The cells were then dispensed with Multidrop (Thermo Fisher, Waltham, MA) at 10 μL/well (7×10^6 cells/mL) with 0.5% DMSO in the final assay. After the treated cells were incubated for 2 hours at 37° C./5% CO2 incubator, 4 μL/well supplemented lysis buffer (100× blocking buffer diluted 25 fold in 4× lysis buffer, Perkin Elmer) were added and incubated at room temperature for 90 min on orbital shaker at 600 rpm. Phospho-STAT5 Cryptate antibody and Phospho-STAT5 d2 antibody (1:1 vol/vol) were premixed and diluted 20 fold with in the detection buffer (Perkin Elmer). 4 μL of the premixed antibody solution were added to each well followed with 24 hours incubation at room temperature on orbital shaker at 600 rpm. The product activity was determined by measuring the fluorescence at 620 nm and 665 nm on Pherastar microplate reader (BMG Labtech). A ratio is calculated (665/620) for each well. Wells with DMSO only served as the positive controls and wells containing high concentration of control compound were used as negative controls. IC50 determination was performed by fitting the curve of percent control activity versus the log of the compound concentration using the GraphPad Prism 7.0 software.

[4] = molecular target: catalytic domain (JH1) of human JAK2 (Homo sapiens (Human), UniProt O60674); assay: JAK2 LanthaScreen JH1 Binding Assay; conditions: read-out: JH1 Bind IC50
Chain of catalytic domain (JH1) of human JAK2 (O60674 826-1132): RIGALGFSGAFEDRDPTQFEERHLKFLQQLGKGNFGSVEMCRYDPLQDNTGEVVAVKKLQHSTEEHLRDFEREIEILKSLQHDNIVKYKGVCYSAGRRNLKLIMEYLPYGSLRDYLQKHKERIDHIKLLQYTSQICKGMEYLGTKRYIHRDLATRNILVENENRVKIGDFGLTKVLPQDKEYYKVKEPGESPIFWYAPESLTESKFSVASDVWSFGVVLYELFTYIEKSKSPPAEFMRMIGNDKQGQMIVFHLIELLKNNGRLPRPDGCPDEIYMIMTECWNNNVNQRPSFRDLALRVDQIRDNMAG
Experimental: JAK2 JH1 binding assay utilizes catalytic domain (JH1, amino acids 826-1132) of human JAK2 expressed as N-terminal FLAG-tagged, biotinylated protein in a baculovirus expression system (Carna Biosciences, Product #08-445-20N). The assay was conducted in black 384-well polystyrene plates in a final reaction volume of 20 μL. JAK2 JH1 (1.5 nM) was incubated with compounds (100 nL serially diluted in DMSO) in the presence of 50 nM fluorescent JAK2-JH1 tracer and 0.5 nM Streptavidin-Tb cryptate (Cisbio Part #610SATLB) in assay buffer (50 mM Tris, pH=7.5, 10 mM MgCl2, 0.01% Brij-35, 0.1% BSA, 1 mM EGTA, 5% Glycerol and 5 mM DTT). Non-specific binding was accessed in the presence of 2 mM ATP. After incubation for 2 hours at 25° C., LanthaScreen signals were read on a PHERAstar FS plate reader (BMG LABTECH). Data was analyzed with IDBS XLfit and GraphPad Prism 5.0 software using a four parameter dose response curve to determine IC50 for each compound.

[5] = molecular target: pseudo-kinase domain (JH2) of human V617F mutant JAK2 (Homo sapiens (Human), UniProt O60674, F794H/V617F/W659A/W777A); assay: JAK2 LanthaScreen JH2-V617F Binding Assay; conditions: read-out: JH2 V617F Bind IC50
Chain of pseudo-kinase domain (JH2) of human V617F mutant JAK2 (O60674 536-812 V617F/W659A/W777A/F794H): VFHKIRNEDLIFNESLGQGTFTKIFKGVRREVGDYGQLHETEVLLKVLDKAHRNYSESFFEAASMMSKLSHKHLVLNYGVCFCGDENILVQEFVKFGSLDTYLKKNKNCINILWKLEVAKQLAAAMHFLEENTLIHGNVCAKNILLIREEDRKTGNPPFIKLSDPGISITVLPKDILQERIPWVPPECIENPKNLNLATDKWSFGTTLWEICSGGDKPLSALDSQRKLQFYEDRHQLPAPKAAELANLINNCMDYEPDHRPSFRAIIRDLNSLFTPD
Experimental: JAK2 JH2-V617F binding assay utilizes pseudo-kinase domain (JH2, amino-acids 536-812 with 3 surface mutations W659A, W777A, F794H) of human V617F mutant JAK2 expressed as C-terminal His-Avi-tagged, biotinylated protein in a baculovirus expression system (BPS Bioscience, Catalog #79498). The assay was conducted in black 384-well polystyrene plates in a final reaction volume of 20 μL. JAK2 JH2-V617F (0.26 nM) was incubated with compounds (100 nL serially diluted in DMSO) in the presence of 50 nM Fluorescent JAK2-JH2 Tracer (MedChem Express Catalog #HY-102055) and 0.25 nM Streptavidin-Tb cryptate (Cisbio Part #610SATLB) in assay buffer (50 mM Tris, pH=7.5, 10 mM MgCl2, 0.01% Brij-35, 0.1% BSA, 1 mM EGTA, 5% Glycerol and 5 mM DTT). Non-specific binding was accessed in the presence of 2 mM ATP. After incubation for 1 hour at 25° C., LanthaScreen signals were read on a PHERAstar FS plate reader (BMG LABTECH). Data was analyzed with IDBS XLfit and GraphPad Prism 5.0 software using a four parameter dose response curve to determine IC50 for each compound.

TRKA [6] = assay: TRKA Enzymatic Assay; format: biochemical
Experimental: (§2) The kinase assays were carried out at 24° C. temperature in assay buffer (HEPES 50 mM, pH 7.0, NaN3 0.02%, BSA 0.01%, Orthovanadate 0.1 mM, DTT 1 mM, MgCl2 10 mM) in a final volume of 10 μL. Testing compounds were prepared by serial dilution in DMSO and transferred to the plate wells by ECHO liquid handler (Labcyte) with 0.5% DMSO in the final assay. […]. Reactions were initiated by the addition of 5 μL ATP in assay buffer. The final 10 μL kinase reaction consisted of 0.58 nM TRKA, 1 mM ATP, 500 nM TK Substrate-biotin and SEB reagent 62.5 nM in assay buffer. […] After 60 minutes incubation at room temperature, the product activity was determined by measuring the fluorescence at 620 nm and 665 nm on Pherastar microplate reader (BMG Labtech). A ratio was calculated (665/620 nm) for each well. Wells with DMSO only served as the positive controls and wells containing no ATP were used as negative controls. IC50 determination was performed by fitting the curve of percent control activity versus the log of the compound concentration using the Gene data.

TRKA [7] = molecular target: TRKA (Homo sapiens (Human), UniProt P04629); assay: TRKA Enzymatic Assay; format: biochemical; conditions: 1 mM ATP
Chain of TRKA (Homo sapiens (Human), UniProt P04629) (P04629 33-796, species assumed): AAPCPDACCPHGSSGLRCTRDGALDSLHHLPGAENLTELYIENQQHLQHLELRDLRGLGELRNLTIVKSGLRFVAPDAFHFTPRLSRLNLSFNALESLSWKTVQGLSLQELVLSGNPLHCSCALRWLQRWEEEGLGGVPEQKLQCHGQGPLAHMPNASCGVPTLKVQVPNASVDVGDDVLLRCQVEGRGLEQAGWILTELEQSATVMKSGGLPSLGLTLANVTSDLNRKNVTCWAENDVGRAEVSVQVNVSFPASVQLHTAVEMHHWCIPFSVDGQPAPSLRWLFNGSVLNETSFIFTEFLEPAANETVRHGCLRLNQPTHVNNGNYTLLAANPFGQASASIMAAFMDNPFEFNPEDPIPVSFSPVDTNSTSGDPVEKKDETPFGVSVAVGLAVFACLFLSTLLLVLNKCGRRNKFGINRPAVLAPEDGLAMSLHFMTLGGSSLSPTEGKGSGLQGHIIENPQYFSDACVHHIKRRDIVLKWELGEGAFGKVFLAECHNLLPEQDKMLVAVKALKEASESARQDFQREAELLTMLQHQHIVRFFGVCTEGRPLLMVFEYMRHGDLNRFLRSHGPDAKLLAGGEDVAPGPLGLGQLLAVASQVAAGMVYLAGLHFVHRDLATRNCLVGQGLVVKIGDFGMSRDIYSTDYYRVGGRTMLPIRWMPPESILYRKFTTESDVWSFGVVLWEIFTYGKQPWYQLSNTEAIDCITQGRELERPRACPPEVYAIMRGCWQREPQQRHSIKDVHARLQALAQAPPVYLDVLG
Experimental: as §2

Structure (SMILES)	Selectivity FLT3/JH2 V617F (FLT3 [1])	IC50 (FLT3 [2]) [µM]	IC50 [3] [µM]	IC50 [4] [µM]	IC50 [5] [µM]	Selectivity TRKA/JH2 V617F (TRKA [6])	IC50 (TRKA [7]) [µM]
COC(=O)N[C@@H]1CC[C@@H](n2c(=O)n(C)c3cnc4[nH]c(-c5ccc(C(=O)N6CCOCC6)cc5)c(-c5ccc6c(cnn6C(C)C)c5)c4c32)C1 [Example 20, Methyl ((1R,3R)-3-(8-(1-isopropyl-1H-indazol-5-yl)-3-methyl-7-(4-(morpholine-4-carbonyl)phenyl)-2-oxo-3,6-dihydroimidazo[4,5-d]pyrrolo[2,3-b]pyridin-1(2H)-yl)cyclopentyl)carbamate]	***** (selectivity of >5000-fold to ≤12500-fold)	0.25 to 1.25	≤ 0.3	> 1	≤ 0.01	***** (selectivity of >5000-fold to ≤12500-fold)	0.25 to 1.25
Cn1c(=O)n(C2CCCC2)c2c3c(-c4ccccc4)c(-c4ccc(CN5CCC(S(C)(=O)=O)CC5)cc4)[nH]c3ncc21 [Comparative Example H, reference compound]	* (selectivity of ≤500-fold)	0.025 to 0.25	0.3 to 0.8		≤ 0.01	* (selectivity of ≤500-fold)	0.025 to 0.25
Cn1cc(-c2[nH]c3ncc4c(c3c2-c2ccc3c(cnn3C)c2)n([C@H]2CC[C@@H](CC#N)CC2)c(=O)n4C)cn1 [Comparative Example C, reference compound]	* (selectivity of ≤500-fold)	< 0.025			≤ 0.01	* (selectivity of ≤500-fold)	< 0.025
Cn1ncc2cc(-c3c(-c4ccc(CN5CCC(S(C)(=O)=O)CC5)cc4)[nH]c4ncc5c(c34)n(C3CCCC3)c(=O)n5C)ccc21 [Comparative Example I, reference compound]	* (selectivity of ≤500-fold)	< 0.025	0.3 to 0.8		≤ 0.01	* (selectivity of ≤500-fold)	< 0.025
CNC(=O)c1ccc(-c2[nH]c3ncc4c(c3c2-c2cccc(F)c2)n([C@@H]2CC[C@@H](NC(=O)OC)C2)c(=O)n4C)cc1F [Example 1, Methyl ((1R,3R)-3-(7-(3-fluoro-4-(methylcarbamoyl)phenyl)-8-(3-fluorophenyl)-3-methyl-2-oxo-3,6-dihydroimidazo[4,5-d]pyrrolo[2,3-b]pyridin-1(2H)-yl)cyclopentyl)carbamate]			> 0.8	> 1	≤ 0.01		
CCn1c(=O)n(C2CCCC2)c2c3cc(-c4ccc(CN5CCC(S(C)(=O)=O)CC5)cc4)[nH]c3ncc21 [Comparative Example G, reference compound]					> 1		
COC(=O)N[C@@H]1CC[C@@H](n2c(=O)n(C)c3cnc4[nH]c(-c5cc(F)c(C(=O)NC6CC6)c(F)c5)c(-c5cccc(F)c5)c4c32)C1 [Example 4, Methyl ((1R,3R)-3-(7-(4-(cyclopropylcarbamoyl)-3,5-difluorophenyl)-8-(3-fluorophenyl)-3-methyl-2-oxo-3,6-dihydroimidazo[4,5-d]pyrrolo[2,3-b]pyridin-1(2H)-yl)cyclopentyl)carbamate]			> 0.8	> 1	≤ 0.01		
COC(=O)N[C@@H]1CC[C@@H](n2c(=O)n(C)c3cnc4[nH]c(-c5ccc(C(=O)N6CC(OC)C6)c(F)c5)c(-c5ccc6c(cnn6C(C)C)c5)c4c32)C1 [Example 17, Methyl ((1R,3R)-3-(7-(3-fluoro-4-(3-methoxyazetidine-1-carbonyl)phenyl)-8-(1-isopropyl-1H-indazol-5-yl)-3-methyl-2-oxo-3,6-dihydroimidazo[4,5-d]pyrrolo[2,3-b]pyridin-1(2H)-yl)cyclopentyl)carbamate]			> 0.8	> 1	≤ 0.01		
CNC(=O)c1c(F)cc(-c2[nH]c3ncc4c(c3c2-c2cccc(F)c2)n([C@@H]2CC[C@@H](NC(=O)OC)C2)c(=O)n4C)cc1F [Example 3, Methyl ((1R,3R)-3-(7-(3,5-difluoro-4-(methylcarbamoyl)phenyl)-8-(3-fluorophenyl)-3-methyl-2-oxo-3,6-dihydroimidazo[4,5-d]pyrrolo[2,3-b]pyridin-1(2H)-yl)cyclopentyl)carbamate]			> 0.8	> 1	≤ 0.01		
COC(=O)N[C@@H]1CC[C@@H](n2c(=O)n(C)c3cnc4[nH]c(-c5ccc(C(=O)NC(C)C)c(F)c5)c(-c5cccc(F)c5)c4c32)C1 [Example 2, Methyl ((1R,3R)-3-(7-(3-fluoro-4-(isopropylcarbamoyl)phenyl)-8-(3-fluorophenyl)-3-methyl-2-oxo-3,6-dihydroimidazo[4,5-d]pyrrolo[2,3-b]pyridin-1(2H)-yl)cyclopentyl)carbamate]			> 0.8	> 1	≤ 0.01		
